Measurements: ChEMBL document CHEMBL1143865, “Pyrazinoindolone inhibitors of MAPKAP-K2” (Bioorg Med Chem Lett, 2008)
The source made the active and inactive calls. No cut-off for these calls is given here.

Key:
[1] = tested on: Mus musculus; assay: Clearance in BALB/c mouse at 0.5 mg/kg, iv expressed as %Q; format: ADME, organism-based; design: dose 0.5 mg/kg, route intravenous; settings: in vivo
[2] = AUC (0 to infinity) in BALB/c mouse at 0.5 mg/kg, iv; format: ADME, organism-based; design: time infinity, dose 0.5 mg/kg, route intravenous; settings: plasma
[3] = Mean retention time in BALB/c mouse at 0.5 mg/kg, iv; format: ADME, organism-based; design: dose 0.5 mg/kg, route intravenous; settings: in vivo
[4] = Solubility at pH 7.4; format: physicochemical; settings: buffer
[5] = Cmax in BALB/c mouse at 1.0 mg/kg, po; format: ADME, organism-based; design: dose 1 mg/kg, route oral; settings: in vivo
[6] = AUC (0 to infinity) in BALB/c mouse at 1.0 mg/kg, po; format: ADME, organism-based; design: time infinity, dose 1 mg/kg, route oral; settings: plasma
[7] = Oral bioavailability in BALB/c mouse at 1.0 mg/kg; format: ADME, organism-based; settings: in vivo
[8] = tested on: THP-1; assay: Inhibition of LPS-induced TNFalpha production in human THP1 cells
[9] = molecular target: MAP kinase-activated protein kinase 2 (Homo sapiens, UniProt P49137)
Sequence of MAP kinase-activated protein kinase 2 (P49137 whole entry): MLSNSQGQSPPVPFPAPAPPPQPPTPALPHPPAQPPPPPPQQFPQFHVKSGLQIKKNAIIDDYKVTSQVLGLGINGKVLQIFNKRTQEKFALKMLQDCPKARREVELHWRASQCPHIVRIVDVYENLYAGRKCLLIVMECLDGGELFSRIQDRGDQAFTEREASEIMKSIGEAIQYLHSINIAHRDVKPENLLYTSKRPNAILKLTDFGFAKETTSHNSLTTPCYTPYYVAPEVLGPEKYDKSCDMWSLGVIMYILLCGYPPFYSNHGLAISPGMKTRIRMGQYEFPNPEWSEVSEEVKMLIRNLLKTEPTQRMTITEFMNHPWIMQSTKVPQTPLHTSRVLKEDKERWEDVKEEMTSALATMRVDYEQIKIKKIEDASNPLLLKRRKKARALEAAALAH

[10] = molecular target: T1, Serine/threonine-protein kinase 3 (Homo sapiens) (UniProt Q13188); assay: Inhibition of MST2 at 10 uM
T1 sequence (whole entry): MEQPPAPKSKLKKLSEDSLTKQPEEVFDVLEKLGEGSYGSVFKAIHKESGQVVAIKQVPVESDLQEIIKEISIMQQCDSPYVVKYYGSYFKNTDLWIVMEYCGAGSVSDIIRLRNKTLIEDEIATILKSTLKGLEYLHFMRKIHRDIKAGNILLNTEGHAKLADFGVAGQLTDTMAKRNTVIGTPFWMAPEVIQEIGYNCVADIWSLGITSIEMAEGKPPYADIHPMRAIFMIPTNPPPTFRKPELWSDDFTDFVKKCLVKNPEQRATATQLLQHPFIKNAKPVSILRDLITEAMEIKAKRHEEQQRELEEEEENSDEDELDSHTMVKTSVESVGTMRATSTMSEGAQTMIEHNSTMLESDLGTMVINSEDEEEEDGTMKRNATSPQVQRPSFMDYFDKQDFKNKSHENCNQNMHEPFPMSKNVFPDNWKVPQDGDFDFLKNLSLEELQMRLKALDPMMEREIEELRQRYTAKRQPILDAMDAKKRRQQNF

[11] = molecular target: Mitogen-activated protein kinase kinase kinase 14 (Homo sapiens, UniProt Q99558); assay: Inhibition of NIK
[12] = molecular target: T2, Lymphokine-activated killer T-cell-originated protein kinase (Homo sapiens) (UniProt Q96KB5); assay: Inhibition of PBK at 10 uM
T2 sequence (whole entry): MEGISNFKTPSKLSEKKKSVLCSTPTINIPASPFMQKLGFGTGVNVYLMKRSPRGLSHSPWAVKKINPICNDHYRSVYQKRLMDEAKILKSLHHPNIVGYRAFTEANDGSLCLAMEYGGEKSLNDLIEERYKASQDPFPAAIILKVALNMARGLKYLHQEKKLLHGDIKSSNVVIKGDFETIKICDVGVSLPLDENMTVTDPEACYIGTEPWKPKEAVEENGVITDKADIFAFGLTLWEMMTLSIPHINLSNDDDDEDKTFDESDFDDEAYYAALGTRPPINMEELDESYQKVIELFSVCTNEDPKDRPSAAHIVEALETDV

[13] = molecular target: Glycogen synthase kinase-3 beta (Homo sapiens, UniProt P49841); assay: Inhibition of GSK3-beta
Sequence of Glycogen synthase kinase-3 beta (P49841 whole entry): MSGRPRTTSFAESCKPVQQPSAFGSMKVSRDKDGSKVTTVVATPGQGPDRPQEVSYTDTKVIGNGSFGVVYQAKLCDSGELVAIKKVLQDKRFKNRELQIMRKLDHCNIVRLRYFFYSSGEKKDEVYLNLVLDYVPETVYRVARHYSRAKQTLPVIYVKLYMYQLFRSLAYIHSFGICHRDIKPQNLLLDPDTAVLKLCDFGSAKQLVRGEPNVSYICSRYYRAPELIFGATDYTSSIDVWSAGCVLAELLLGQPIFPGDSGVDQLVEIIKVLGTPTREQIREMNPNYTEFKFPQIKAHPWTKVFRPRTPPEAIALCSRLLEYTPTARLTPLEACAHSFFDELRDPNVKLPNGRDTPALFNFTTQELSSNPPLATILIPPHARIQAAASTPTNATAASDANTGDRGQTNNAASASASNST

[14] = molecular target: T3, Mitogen-activated protein kinase 15 (Homo sapiens) (UniProt Q8TD08); assay: Inhibition of ERK8 at 10 uM
T3 sequence (whole entry): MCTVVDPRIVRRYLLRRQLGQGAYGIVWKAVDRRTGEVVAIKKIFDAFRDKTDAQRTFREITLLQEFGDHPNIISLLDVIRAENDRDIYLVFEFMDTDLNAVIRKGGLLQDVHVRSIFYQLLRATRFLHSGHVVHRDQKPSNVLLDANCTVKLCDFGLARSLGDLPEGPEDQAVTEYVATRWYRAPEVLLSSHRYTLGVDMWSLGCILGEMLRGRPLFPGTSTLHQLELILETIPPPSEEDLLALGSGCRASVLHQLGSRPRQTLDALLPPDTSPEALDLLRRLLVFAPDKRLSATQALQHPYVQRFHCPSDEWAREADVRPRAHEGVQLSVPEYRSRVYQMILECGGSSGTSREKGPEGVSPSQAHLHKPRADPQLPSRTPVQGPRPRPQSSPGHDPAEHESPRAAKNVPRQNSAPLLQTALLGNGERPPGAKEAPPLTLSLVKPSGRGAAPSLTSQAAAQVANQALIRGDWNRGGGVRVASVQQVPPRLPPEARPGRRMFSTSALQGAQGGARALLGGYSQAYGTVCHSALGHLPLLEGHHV

[15] = molecular target: Dual specificity protein kinase CLK1 (Homo sapiens, UniProt P49759); assay: Inhibition of CLK1
Sequence of Dual specificity protein kinase CLK1 (P49759 whole entry): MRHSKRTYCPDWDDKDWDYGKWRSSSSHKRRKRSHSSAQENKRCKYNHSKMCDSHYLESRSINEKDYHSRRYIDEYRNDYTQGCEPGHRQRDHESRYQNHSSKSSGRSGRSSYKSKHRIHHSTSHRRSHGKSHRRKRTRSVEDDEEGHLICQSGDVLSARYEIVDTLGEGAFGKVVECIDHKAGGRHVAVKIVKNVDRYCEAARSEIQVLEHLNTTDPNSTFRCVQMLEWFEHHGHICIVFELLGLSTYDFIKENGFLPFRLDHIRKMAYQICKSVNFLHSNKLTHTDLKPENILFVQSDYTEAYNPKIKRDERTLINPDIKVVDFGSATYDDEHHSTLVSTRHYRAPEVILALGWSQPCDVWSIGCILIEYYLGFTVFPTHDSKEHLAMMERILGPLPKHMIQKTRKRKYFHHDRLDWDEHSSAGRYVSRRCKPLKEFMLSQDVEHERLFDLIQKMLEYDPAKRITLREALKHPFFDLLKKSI

[16] = molecular target: Rho-associated protein kinase 2 (Homo sapiens) (UniProt O75116); assay: Inhibition of ROCK2 at 10 uM
Sequence of Rho-associated protein kinase 2 (Homo sapiens) (O75116 whole entry, looked up): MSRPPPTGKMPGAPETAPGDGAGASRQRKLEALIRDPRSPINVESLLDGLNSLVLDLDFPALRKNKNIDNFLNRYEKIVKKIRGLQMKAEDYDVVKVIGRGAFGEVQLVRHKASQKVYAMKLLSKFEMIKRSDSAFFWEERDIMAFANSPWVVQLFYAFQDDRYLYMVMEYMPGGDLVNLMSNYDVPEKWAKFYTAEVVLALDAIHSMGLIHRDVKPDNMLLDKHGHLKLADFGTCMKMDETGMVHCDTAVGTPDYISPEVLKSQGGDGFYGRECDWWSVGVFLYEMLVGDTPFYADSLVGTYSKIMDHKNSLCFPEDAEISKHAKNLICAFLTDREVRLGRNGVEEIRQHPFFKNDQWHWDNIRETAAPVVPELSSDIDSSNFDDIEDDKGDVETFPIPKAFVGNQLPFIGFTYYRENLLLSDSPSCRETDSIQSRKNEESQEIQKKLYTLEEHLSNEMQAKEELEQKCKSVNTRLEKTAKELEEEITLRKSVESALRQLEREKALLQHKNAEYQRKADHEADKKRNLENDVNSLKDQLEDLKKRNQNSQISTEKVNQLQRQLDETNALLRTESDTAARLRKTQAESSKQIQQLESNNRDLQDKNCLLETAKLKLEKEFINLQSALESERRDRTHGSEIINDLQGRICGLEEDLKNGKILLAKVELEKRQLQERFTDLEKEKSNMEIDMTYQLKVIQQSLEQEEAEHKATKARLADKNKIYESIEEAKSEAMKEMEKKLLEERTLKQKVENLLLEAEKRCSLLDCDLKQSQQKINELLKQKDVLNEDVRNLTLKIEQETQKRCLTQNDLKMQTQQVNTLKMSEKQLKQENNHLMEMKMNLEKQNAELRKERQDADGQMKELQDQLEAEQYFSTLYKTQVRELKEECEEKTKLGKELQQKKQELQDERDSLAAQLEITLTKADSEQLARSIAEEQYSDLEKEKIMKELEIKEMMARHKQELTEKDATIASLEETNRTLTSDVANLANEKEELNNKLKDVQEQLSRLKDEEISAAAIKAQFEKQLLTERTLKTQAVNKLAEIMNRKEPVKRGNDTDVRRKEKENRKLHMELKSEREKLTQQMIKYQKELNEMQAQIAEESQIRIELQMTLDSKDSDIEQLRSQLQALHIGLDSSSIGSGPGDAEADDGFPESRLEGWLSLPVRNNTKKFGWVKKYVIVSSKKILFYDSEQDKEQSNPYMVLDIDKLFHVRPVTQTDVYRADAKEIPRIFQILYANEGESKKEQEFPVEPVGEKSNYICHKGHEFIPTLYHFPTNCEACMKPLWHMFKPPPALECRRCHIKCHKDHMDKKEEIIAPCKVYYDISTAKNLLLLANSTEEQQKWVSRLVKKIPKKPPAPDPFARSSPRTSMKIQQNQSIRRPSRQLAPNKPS

[17] = molecular target: Dual specificity tyrosine-phosphorylation-regulated kinase 1A (Homo sapiens) (UniProt Q13627); assay: Inhibition of DYRK1A at 10 uM
[18] = molecular target: Mitogen-activated protein kinase 1 (Homo sapiens, UniProt P28482); assay: Inhibition of Erk2
Sequence of Mitogen-activated protein kinase 1 (P28482 whole entry): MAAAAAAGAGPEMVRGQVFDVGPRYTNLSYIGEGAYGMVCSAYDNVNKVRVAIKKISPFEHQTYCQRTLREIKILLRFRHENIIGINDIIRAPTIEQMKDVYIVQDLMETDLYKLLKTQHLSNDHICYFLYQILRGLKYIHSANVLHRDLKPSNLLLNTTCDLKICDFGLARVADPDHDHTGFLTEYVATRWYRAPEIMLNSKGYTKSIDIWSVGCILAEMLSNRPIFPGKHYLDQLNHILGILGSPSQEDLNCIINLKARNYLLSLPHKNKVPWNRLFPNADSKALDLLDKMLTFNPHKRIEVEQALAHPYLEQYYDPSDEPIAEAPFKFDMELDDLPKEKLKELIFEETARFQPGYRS

[19] = Inhibition of MNK2alpha at 10 uM
[20] = molecular target: SRSF protein kinase 1 (Homo sapiens) (UniProt Q96SB4); assay: Inhibition of SRPK1 at 10 uM
Sequence of SRSF protein kinase 1 (Homo sapiens) (Q96SB4 whole entry): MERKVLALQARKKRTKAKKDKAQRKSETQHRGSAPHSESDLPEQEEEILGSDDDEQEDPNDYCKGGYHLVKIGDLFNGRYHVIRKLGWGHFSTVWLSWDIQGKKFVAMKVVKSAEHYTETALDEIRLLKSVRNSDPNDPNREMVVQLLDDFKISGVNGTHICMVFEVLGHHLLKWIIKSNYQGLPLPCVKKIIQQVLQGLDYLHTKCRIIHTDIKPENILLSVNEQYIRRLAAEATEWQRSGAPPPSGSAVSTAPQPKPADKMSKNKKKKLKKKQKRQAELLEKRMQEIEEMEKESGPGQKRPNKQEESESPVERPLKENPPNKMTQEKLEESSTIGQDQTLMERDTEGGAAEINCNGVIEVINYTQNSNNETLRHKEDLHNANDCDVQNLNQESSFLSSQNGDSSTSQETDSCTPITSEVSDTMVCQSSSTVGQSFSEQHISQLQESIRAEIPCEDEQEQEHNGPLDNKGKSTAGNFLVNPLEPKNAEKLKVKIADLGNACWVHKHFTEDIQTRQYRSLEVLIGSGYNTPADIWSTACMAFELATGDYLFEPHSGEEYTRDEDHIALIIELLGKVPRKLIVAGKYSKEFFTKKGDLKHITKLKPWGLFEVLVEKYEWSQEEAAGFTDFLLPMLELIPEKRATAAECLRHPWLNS

[21] = molecular target: 3-phosphoinositide-dependent protein kinase 1 (Homo sapiens) (UniProt O15530); assay: Inhibition of PDK1 at 10 uM
Sequence of 3-phosphoinositide-dependent protein kinase 1 (Homo sapiens) (O15530 whole entry, looked up): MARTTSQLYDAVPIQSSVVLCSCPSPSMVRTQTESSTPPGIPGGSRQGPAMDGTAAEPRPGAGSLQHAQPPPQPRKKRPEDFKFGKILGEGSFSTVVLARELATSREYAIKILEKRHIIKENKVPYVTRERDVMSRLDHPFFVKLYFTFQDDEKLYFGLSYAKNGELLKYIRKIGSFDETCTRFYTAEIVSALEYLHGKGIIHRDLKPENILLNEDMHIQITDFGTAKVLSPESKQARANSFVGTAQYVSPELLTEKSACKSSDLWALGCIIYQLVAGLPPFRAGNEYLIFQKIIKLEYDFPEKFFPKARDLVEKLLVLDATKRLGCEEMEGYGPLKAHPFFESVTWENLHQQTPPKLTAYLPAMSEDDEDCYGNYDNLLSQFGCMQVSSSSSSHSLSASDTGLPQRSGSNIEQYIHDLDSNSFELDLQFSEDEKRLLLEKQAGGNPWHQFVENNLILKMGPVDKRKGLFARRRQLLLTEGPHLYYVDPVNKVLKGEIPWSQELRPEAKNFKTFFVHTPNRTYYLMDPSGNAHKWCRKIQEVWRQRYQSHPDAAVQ

[22] = Inhibition of AMPK at 10 uM
[23] = molecular target: T4, MAP kinase-activated protein kinase 5 (Homo sapiens) (UniProt Q8IW41); assay: Inhibition of PRAK at 10 uM
T4 sequence (whole entry): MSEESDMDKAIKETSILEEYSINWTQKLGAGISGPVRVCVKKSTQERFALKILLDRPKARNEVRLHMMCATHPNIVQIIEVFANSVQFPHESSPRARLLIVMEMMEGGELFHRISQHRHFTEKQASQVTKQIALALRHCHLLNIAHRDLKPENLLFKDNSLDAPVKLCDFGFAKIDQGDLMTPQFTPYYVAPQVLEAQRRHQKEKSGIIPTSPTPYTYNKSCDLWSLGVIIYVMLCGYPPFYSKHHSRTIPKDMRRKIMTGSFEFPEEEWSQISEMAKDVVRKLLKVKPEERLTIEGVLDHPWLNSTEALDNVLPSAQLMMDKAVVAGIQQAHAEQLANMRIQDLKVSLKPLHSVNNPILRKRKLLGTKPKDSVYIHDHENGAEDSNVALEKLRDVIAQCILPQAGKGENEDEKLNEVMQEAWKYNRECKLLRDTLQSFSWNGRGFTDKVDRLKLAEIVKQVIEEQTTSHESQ

[24] = Inhibition of MAPKAP-K1
[25] = molecular target: Serine/threonine-protein kinase Chk2 (Homo sapiens) (UniProt O96017); assay: Inhibition of CHK2 at 10 uM
Sequence of Serine/threonine-protein kinase Chk2 (Homo sapiens) (O96017 whole entry): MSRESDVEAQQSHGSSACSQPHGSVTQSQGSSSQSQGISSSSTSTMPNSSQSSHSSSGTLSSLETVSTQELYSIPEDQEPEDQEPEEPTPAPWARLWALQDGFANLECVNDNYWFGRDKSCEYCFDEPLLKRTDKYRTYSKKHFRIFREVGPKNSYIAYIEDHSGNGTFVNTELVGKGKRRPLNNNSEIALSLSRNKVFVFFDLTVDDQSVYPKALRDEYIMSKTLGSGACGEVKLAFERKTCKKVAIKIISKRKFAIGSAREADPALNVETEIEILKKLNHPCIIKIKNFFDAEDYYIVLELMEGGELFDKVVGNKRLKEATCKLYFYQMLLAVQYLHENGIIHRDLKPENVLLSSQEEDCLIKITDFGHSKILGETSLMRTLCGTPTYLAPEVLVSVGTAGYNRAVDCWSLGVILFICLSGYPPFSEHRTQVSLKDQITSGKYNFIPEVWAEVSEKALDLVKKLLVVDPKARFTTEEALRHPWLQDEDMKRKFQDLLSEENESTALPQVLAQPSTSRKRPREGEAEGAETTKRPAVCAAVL

[26] = Drug level in mouse plasma at 60 mg/kg, po after 90 mins; format: ADME, organism-based; design: dose 60 mg/kg, route oral
[27] = tested on: Mus musculus; assay: Inhibition of LPS-stimulated TNFalpha production in mouse at 60 mg/kg, po; format: functional, organism-based; design: dose 60 mg/kg

With `CC1CNC(=O)c2[nH]c3ccc(C(=O)Nc4nc(C(=O)NC5CCCCC5)cs4)cc3c21` (stereo unspecified) the “CL(%Q)” value [1] was 18%, the AUC(0-inf) [2] was 525 ng·h/mL and the MRT [3] was 0.8 h. For the same molecule, the solubility [4] was < 0.1 µg/mL, the Cmax [5] was 60 nM and the AUC(0-inf) [6] was 88 ng·h/mL. It also gave a bioavailability [7] of 8%.

With `O=C(Nc1nc(C(=O)NC2CCN(Cc3ccccc3)CC2)cs1)c1ccc2cc3n(c2c1)C1(CCC1)CNC3=O` the IC50 [8] was 520 nM.

Work on `CC1CNC(=O)c2cc3ccc(C(=O)Nc4nc(C(=O)NCC(C)(C)C)cs4)cc3n21` (stereo unspecified) yielded an IC50 [9] of 46 nM and an IC50 [8] of 2700 nM.

With `CC1CNC(=O)c2cc3ccc(C(=O)Nc4nc(C(=O)NC5CCN(C)CC5)cs4)cc3n21` (stereo unspecified) the IC50 [8] was > 5000 nM.

Work on `CN1CCC(NC(=O)c2csc(NC(=O)c3ccc4cc5n(c4c3)C(C)(C)CNC5=O)n2)CC1` yielded an IC50 [8] of 2400 nM.

For `CC1CNC(=O)c2[nH]c3ccc(C(=O)Nc4nc(C(=O)NC5CCN(C)CC5)cs4)cc3c21` (stereo unspecified), the IC50 [8] was > 5000 nM.

For `CCN1CCC(NC(=O)c2csc(NC(=O)c3ccc4cc5n(c4c3)C(C)CNC5=O)n2)CC1` (stereo unspecified), the solubility [4] was > 30 µg/mL, the IC50 [9] was 7 nM and the IC50 [8] was 8900 nM.

For `CC1CNC(=O)c2cc3ccc(C(=O)Nc4nc(C(=O)NC5CCCCC5)cs4)cc3n21` (stereo unspecified), the “CL(%Q)” value [1] was 18%, the AUC(0-inf) [2] was 535 ng·h/mL and the MRT [3] was 2 h. The solubility [4] was < 0.1 µg/mL, the Cmax [5] was 80 nM and the AUC(0-inf) [6] was 115 ng·h/mL. The IC50 [9] was 20 nM, the bioavailability [7] was 11% and the IC50 [8] was 1400 nM.

With `CC1CNC(=O)c2cc3ccc(C(=O)Nc4nc(C(=O)NC5CCN(Cc6ccccc6)CC5)cs4)cc3n21` (stereo unspecified) the solubility [4] was > 30 µg/mL and the IC50 [8] was 1600 nM.

With `CC(C)(C)CN1CCC(NC(=O)c2csc(NC(=O)c3ccc4cc5n(c4c3)C3(CCC3)CNC5=O)n2)CC1` the “CL(%Q)” value [1] was 30%, the AUC(0-inf) [2] was 165 ng·h/mL and the inhibition [10] was 86%. For the same molecule, the IC50 [11] was 480 nM, the MRT [3] was 6.1 h and the inhibition [12] was 75%. The IC50 [13] was 920 nM, the solubility [4] was > 96 µg/mL and the Cmax [5] was 60 nM. The inhibition [14] was 82%, the IC50 [15] was 93 nM and the AUC(0-inf) [6] was 446 ng·h/mL. The inhibition [16] was 63%, the inhibition [17] was 94% and the IC50 [18] was > 3000 nM. For the same molecule, the inhibition [19] was 80%, the inhibition [20] was 60% and the inhibition [21] was 92%. For the same molecule, the inhibition [22] was 98%, the inhibition [23] was 98% and the bioavailability [7] was > 100%. The IC50 [24] was 25 nM, the IC50 [8] was 300 nM and the inhibition [25] was 84%.

`CC1(C)CNC(=O)c2cc3ccc(C(=O)Nc4nc(C(=O)NC5CCCCC5)cs4)cc3n21` gave an IC50 [9] of 19 nM and an IC50 [8] of 1000 nM.

Molecule `CC1CCC(NC(=O)c2csc(NC(=O)c3ccc4cc5n(c4c3)C(C)CNC5=O)n2)CC1` (stereo unspecified) has an IC50 [9] of 45 nM and an IC50 [8] of 1800 nM.

With `CC(C)CN1CCC(NC(=O)c2csc(NC(=O)c3ccc4cc5n(c4c3)C(C)CNC5=O)n2)CC1` (stereo unspecified) the solubility [4] was > 30 µg/mL and the IC50 [8] was 1670 nM.

Work on `CC1(C)CNC(=O)c2cc3ccc(C(=O)Nc4nc(C(=O)NC5CCN(Cc6ccccc6)CC5)cs4)cc3n21` yielded an IC50 [8] of 900 nM.

For `CC1CNC(=O)c2cc3ccc(C(=O)Nc4nc(C(=O)NC5CCN(CC(C)(C)C)CC5)cs4)cc3n21` (stereo unspecified), the concentration at 1.5 h [26] was 690 nM, the solubility [4] was > 30 µg/mL and the IC50 [8] was 735 nM. For the same molecule, the Activity [27] was “inactive”.

`CC(C)(C)CN1CCC(NC(=O)c2csc(NC(=O)c3ccc4cc5n(c4c3)C(C)(C)CNC5=O)n2)CC1` gave an IC50 [8] of 430 nM.

Molecule `CC1CNC(=O)c2cc3ccc(C(=O)Nc4nc(C(=O)NC5CCOCC5)cs4)cc3n21` (stereo unspecified) has an IC50 [9] of 12 nM and an IC50 [8] of 5800 nM.

Molecule `CN1CCC(NC(=O)c2csc(NC(=O)c3ccc4cc5n(c4c3)C3(CCC3)CNC5=O)n2)CC1` has an IC50 [8] of 1700 nM.
